Test results from ChEMBL document CHEMBL1201862, “PubChem BioAssay data set” (2004).
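Where inhibition never reached the appropriate level, the endpoint shown equals the highest concentration tested. Otherwise, values were interpolated linearly from a five-concentration, 48-hour dose response in 96-well plates. GI50 is the concentration that inhibits growth by half.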 The source made the active and inactive calls. Rule as the data show it: active = GI50 up to about 1.1 µM and inactive = higher.

Legend:
Experiment in all cases: NCI tumour cell line growth inhibition, 48 h
COLO 205 = test system: COLO 205
CAKI-1 = test system: CAKI-1
NCI-H23 = test system: NCI-H23
HCT-116 = test system: HCT-116
NCI-H226 = test system: NCI-H226
SK-MEL-28 = test system: SK-MEL-28
CCRF-CEM = test system: CCRF-CEM
NCI-H460 = test system: NCI-H460
HT-29 = test system: HT-29
SK-OV-3 = test system: SK-OV-3
MOLT-4 = test system: MOLT-4
Malme-3M = test system: Malme-3M
U-251 = test system: U-251
KM12 = test system: KM12
NCI-H522 = test system: NCI-H522
OVCAR-5 = test system: OVCAR-5
TK-10 = test system: TK-10
RXF 393 = test system: RXF 393
OVCAR-3 = test system: OVCAR-3
OVCAR-8 = test system: OVCAR-8

Measured: GI50

CN1NC(c2ccccc2)=C(C#N)C(=O)CC1c1ccc(F)cc1 (stereo not drawn)
inactive: COLO 205 > 100 µM | CAKI-1 > 100 µM | NCI-H23 > 100 µM | HCT-116 > 100 µM | NCI-H226 > 100 µM | SK-MEL-28 > 100 µM | CCRF-CEM > 100 µM | NCI-H460 > 100 µM | HT-29 > 100 µM | SK-OV-3 > 100 µM | MOLT-4 > 100 µM | Malme-3M > 100 µM | U-251 > 100 µM | KM12 > 100 µM | NCI-H522 62.4 µM | OVCAR-5 > 100 µM | TK-10 > 100 µM | RXF 393 > 100 µM

N#CCCC1C(C#N)C2(Cl)CC1(Cl)C(Cl)=C2Cl (stereo not drawn)
inactive: COLO 205 > 10 µM | CAKI-1 > 10 µM | NCI-H23 > 10 µM | HCT-116 > 10 µM | NCI-H226 > 10 µM | SK-MEL-28 > 10 µM | CCRF-CEM > 10 µM | NCI-H460 > 10 µM | OVCAR-3 > 10 µM | HT-29 > 10 µM | SK-OV-3 > 10 µM | OVCAR-8 > 10 µM | MOLT-4 > 10 µM | Malme-3M > 10 µM | U-251 > 10 µM | KM12 > 10 µM | NCI-H522 3.59 µM | OVCAR-5 > 10 µM | TK-10 > 10 µM | RXF 393 > 10 µM

CC[N+]1(C)CCC(O)(c2ccc(Cl)cc2)C(C(=O)c2ccc(Cl)cc2)C1 (stereo not drawn)
inactive: COLO 205 4.89 µM | NCI-H23 17.4 µM | HCT-116 10.3 µM | NCI-H226 23.8 µM | SK-MEL-28 16 µM | CCRF-CEM 2.74 µM | NCI-H460 27.5 µM | OVCAR-3 20.5 µM | HT-29 29.1 µM | SK-OV-3 14.6 µM | OVCAR-8 46.6 µM | MOLT-4 13.7 µM | Malme-3M 7.31 µM | U-251 24.5 µM | KM12 16.9 µM | NCI-H522 1.79 µM | OVCAR-5 19.1 µM | TK-10 17.7 µM | RXF 393 14.4 µM

O=c1n(CC2CO2)c2ccccc2n1CC1CS1 (stereo not drawn)
inactive: COLO 205 > 100 µM | CAKI-1 45.1 µM | HCT-116 67.3 µM | NCI-H226 > 100 µM | SK-MEL-28 > 100 µM | CCRF-CEM 63.2 µM | NCI-H460 > 100 µM | OVCAR-3 78.7 µM | HT-29 > 10 µM | SK-OV-3 > 10 µM | OVCAR-8 > 100 µM | MOLT-4 73.3 µM | Malme-3M > 100 µM | KM12 > 100 µM | NCI-H522 > 100 µM | OVCAR-5 > 100 µM | TK-10 > 100 µM | RXF 393 57 µM

Cc1ccc(Cl)cc1/N=N/C(=O)NNc1cc(Cl)ccc1C
inactive: COLO 205 21.9 µM | CAKI-1 13.1 µM | NCI-H23 19.4 µM | HCT-116 25.4 µM | NCI-H226 20.1 µM | SK-MEL-28 18 µM | CCRF-CEM 10 µM | NCI-H460 18 µM | OVCAR-3 14.7 µM | HT-29 26.9 µM | SK-OV-3 20.3 µM | MOLT-4 13.9 µM | Malme-3M 24 µM | U-251 19.7 µM | KM12 33.1 µM | NCI-H522 13.1 µM | OVCAR-5 15.8 µM | RXF 393 21 µM
